Measurements as given in publication PMC6939882 (Molecular microbiology, 2017).

Assays:
[1] = target: T1, Amy13K ΔCBMa-e (Agathobacter rectalis, UniProt A0ABF7PGZ5); experiment: isothermal titration calorimetry of hydrolysis; assay type: biochemical; settings: 37 °C; only kcat/KM printed
T1 sequence (A0ABF7PGZ5 621-1364 limits assumed): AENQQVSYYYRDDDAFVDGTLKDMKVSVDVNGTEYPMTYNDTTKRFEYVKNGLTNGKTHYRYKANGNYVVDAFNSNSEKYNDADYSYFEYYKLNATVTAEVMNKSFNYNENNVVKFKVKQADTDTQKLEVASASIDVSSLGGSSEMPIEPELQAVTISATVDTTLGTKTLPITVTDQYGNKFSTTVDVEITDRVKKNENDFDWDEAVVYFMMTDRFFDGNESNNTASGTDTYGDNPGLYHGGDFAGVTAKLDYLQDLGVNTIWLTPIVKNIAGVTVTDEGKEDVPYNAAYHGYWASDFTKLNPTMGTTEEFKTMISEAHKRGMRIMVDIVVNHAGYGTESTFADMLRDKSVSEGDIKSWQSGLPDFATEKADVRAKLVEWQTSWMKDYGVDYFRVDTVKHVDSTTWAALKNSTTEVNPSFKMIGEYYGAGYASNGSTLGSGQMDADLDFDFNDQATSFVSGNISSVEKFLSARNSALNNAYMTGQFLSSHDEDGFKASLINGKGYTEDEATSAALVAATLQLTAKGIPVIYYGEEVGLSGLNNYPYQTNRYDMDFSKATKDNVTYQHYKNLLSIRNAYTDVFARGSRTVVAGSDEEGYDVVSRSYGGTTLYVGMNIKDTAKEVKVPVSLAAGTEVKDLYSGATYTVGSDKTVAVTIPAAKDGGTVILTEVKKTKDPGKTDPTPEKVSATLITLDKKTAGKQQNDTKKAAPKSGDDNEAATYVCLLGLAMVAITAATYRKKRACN

[2] = target: T2, Amy13K WT (Agathobacter rectalis, UniProt A0ABF7PGZ5); experiment: isothermal titration calorimetry of hydrolysis; assay type: biochemical; settings: 37 °C; only kcat/KM printed
T2 sequence (A0ABF7PGZ5 44-1364): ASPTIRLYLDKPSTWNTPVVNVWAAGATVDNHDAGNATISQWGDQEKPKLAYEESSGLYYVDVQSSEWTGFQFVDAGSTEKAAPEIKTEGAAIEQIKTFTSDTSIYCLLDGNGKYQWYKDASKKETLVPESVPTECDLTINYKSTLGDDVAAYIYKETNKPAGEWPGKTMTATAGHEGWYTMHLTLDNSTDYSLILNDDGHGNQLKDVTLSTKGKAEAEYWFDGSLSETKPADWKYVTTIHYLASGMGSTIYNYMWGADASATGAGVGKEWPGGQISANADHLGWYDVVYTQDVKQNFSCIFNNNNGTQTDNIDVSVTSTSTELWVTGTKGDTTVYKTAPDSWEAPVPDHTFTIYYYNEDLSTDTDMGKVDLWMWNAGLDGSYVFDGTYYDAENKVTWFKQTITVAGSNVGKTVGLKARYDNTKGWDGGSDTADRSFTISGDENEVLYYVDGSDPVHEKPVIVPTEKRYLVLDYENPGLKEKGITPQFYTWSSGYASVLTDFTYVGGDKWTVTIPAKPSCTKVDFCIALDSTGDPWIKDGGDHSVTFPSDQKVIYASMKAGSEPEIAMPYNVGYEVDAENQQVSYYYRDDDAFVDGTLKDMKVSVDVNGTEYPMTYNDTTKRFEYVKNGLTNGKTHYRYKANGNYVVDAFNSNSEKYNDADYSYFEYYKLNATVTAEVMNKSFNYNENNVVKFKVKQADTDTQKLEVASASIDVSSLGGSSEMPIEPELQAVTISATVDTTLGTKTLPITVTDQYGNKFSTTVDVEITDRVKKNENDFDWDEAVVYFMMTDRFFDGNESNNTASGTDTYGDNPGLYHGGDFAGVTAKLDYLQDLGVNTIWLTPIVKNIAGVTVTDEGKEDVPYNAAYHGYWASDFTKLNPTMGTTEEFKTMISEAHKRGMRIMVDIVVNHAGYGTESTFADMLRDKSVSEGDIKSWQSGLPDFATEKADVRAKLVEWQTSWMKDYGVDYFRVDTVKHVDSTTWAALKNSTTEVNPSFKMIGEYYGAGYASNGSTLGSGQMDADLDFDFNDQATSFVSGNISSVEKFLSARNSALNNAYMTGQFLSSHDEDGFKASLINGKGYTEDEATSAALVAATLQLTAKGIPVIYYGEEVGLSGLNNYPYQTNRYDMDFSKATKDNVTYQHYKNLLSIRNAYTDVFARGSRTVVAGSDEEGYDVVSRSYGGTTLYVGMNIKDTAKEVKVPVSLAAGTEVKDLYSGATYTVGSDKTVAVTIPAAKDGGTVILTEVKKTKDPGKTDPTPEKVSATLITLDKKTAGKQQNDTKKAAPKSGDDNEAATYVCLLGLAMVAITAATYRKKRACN

With `OC[C@H]1O[C@H](O[C@H]2[C@H](O)[C@@H](O)[C@@H](O[C@H]3[C@H](O)[C@@H](O)[C@@H](O[C@H]4[C@H](O)[C@@H](O)[C@@H](O[C@H]5[C@H](O)[C@@H](O)[C@@H](O[C@H]6[C@H](O)[C@@H](O)[C@@H](O[C@H]7[C@H](O)[C@@H](O)C(O)O[C@@H]7CO)O[C@@H]6CO)O[C@@H]5CO)O[C@@H]4CO)O[C@@H]3CO)O[C@@H]2CO)[C@H](O)[C@@H](O)[C@@H]1O` (some centres unmarked) [maltoheptaose] the “isothermal titration calorimetry of hydrolysis” value [1] was “The catalytic efficiency of the WT and ΔCBMa-e on maltoheptaose are” and the “isothermal titration calorimetry of hydrolysis” value [2] was “The catalytic efficiency of the WT and ΔCBMa-e on maltoheptaose are”.
